Results as given in ChEMBL document CHEMBL1132669, “New generation dopaminergic agents. 7. Heterocyclic bioisosteres that exploit the 3-OH-phenoxyethylamine D2 template” (Bioorg Med Chem Lett, 1999).
pKi: −log10 of the molar value. Active and inactive are the calls of the source. The rule behind the calls is not given here.

Legend:
[1] = molecular target: D(2) dopamine receptor (Rattus norvegicus) (UniProt P61169); assay: Relative binding affinity for low and hugh affinity type dopamine D2 receptors in rat striatal membranes; type: cell membranes; conditions: Striatum, Membrane
D(2) dopamine receptor [2] = molecular target: D(2) dopamine receptor (Homo sapiens, UniProt P14416); assay: Inhibition of [3H]spiperone binding to human Dopamine receptor D2 in CHO cell membranes
D(2) dopamine receptor [3] = molecular target: T1, D(2) dopamine receptor (Rattus norvegicus, UniProt P61169); assay: Inhibition of [3H]quinpirole binding to rat striatal membrane Dopamine receptor D2 without GTP and sodium
D(3) dopamine receptor = D(3) dopamine receptor (Homo sapiens, UniProt P35462); assay: Inhibition of [3H]spiperone binding to human Dopamine receptor D3 in CHO cell membranes
D(4) dopamine receptor = molecular target: T2, D(4) dopamine receptor (Homo sapiens, UniProt P21917); assay: Inhibition of [3H]spiperone binding to human Dopamine receptor D4.4 expressed in CHO cell membranes
T2 sequence (P21917 whole entry): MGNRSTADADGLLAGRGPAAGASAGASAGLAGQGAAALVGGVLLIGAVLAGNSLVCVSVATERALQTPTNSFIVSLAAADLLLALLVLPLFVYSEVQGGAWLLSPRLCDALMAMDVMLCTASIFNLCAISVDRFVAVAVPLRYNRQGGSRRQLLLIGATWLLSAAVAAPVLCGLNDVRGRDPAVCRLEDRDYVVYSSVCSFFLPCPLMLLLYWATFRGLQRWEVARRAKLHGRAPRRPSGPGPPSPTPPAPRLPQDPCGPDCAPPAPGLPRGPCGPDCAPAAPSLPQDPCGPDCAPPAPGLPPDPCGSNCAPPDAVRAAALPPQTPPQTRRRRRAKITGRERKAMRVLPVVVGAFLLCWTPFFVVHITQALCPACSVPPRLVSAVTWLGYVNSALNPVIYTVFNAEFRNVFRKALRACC

D(2) dopamine receptor [4] = molecular target: T1, D(2) dopamine receptor; assay: Inhibition of [3H]spiperone binding to rat striatal membrane Dopamine receptor D2 low affinity without GTP and sodium
Mus musculus [5] = assay: Inhibitory activity against Sterotypy in mice administered subcutaneously at 3 mg/kg; NS is not significant; type: functional, organism-based; set-up: dose 3 mg/kg
Mus musculus [6] = assay: Inhibitory activity against apomorphine-induced climbing in mice administered subcutaneously at 3 mg/kg; NS is not significant; type: functional, organism-based; set-up: dose 3 mg/kg
Mus musculus [7] = assay: In vivo inhibitory activity against spontaneous locomotory activity in mice administered subcutaneously; type: functional; conditions: sc
Mus musculus [8] = assay: Inhibitory activity against apomorphine-induced climbing in mice administered subcutaneously; type: functional; conditions: sc
Mus musculus [9] = assay: Inhibitory activity against Sterotypy in mice administered subcutaneously; type: functional; conditions: sc

D(3) dopamine receptor, sequence (P35462 whole entry): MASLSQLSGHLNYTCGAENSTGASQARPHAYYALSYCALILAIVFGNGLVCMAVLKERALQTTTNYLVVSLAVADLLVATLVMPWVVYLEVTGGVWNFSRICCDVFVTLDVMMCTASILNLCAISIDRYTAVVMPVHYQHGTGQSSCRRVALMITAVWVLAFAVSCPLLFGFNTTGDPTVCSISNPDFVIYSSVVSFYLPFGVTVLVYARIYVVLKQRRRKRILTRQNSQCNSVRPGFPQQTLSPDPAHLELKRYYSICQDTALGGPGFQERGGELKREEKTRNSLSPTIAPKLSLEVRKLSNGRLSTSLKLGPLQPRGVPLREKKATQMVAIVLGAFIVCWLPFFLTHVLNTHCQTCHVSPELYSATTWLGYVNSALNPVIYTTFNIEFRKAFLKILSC
D(2) dopamine receptor (Homo sapiens, UniProt P14416), sequence (P14416 whole entry): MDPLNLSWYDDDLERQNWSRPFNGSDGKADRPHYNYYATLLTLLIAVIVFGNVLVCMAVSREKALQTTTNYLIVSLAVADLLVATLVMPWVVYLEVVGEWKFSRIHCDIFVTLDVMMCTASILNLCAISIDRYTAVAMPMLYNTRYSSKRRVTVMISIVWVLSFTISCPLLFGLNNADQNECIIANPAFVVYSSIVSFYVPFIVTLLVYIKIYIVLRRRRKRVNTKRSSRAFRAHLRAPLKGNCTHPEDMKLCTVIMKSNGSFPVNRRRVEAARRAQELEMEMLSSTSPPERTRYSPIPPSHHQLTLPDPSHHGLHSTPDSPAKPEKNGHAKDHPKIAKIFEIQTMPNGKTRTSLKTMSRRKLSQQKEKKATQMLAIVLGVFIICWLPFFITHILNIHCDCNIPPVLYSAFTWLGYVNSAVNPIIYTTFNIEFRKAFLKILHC
T1 sequence (P61169 whole entry): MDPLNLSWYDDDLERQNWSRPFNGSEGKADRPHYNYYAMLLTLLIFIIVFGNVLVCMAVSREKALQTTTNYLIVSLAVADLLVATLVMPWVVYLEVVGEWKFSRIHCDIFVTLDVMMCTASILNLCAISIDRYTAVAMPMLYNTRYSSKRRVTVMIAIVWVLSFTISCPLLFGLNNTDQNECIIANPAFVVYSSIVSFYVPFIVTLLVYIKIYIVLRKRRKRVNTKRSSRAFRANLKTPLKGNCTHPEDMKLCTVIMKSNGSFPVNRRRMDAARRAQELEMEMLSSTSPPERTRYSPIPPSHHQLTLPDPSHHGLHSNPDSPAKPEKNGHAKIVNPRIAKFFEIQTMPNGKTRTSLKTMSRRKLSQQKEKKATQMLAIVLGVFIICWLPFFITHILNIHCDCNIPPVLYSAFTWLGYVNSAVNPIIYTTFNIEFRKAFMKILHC
D(2) dopamine receptor (Rattus norvegicus), sequence (P61169 whole entry): as above

| Compound | Ratio [1] | pKi (D(2) dopamine receptor [2]) | pKi (D(2) dopamine receptor [3]) | pKi (D(3) dopamine receptor) | pKi (D(4) dopamine receptor) | pKi (D(2) dopamine receptor [4]) | ED50 (Mus musculus [5]) | ED50 (Mus musculus [6]) | ED50 (Mus musculus [7]) [mg/kg] | ED50 (Mus musculus [8]) [mg/kg] | ED50 (Mus musculus [9]) [mg/kg] |
| --- | --- | --- | --- | --- | --- | --- | --- | --- | --- | --- | --- |
| c1ccc(CNCCOc2cccc3[nH]cnc23)cc1 | 13 | – | – | – | – | – | – | – | – | – | – |
| c1ccc(CNCCOc2cccc3nc[nH]c23)cc1 | – | 7.07 | 8.01 | 7.17 | 7.29 | 6.89 | – | – | – | – | – |
| c1ccc(CNCCOc2cccc3[nH]ccc23)cc1 | 4 | 7.09 | – | 7.71 | 6.64 | – | – | – | – | – | – |
| c1ccc(CNCCOc2cccc3[nH]ncc23)cc1 | 33 | 7.10 | 8.96 | 8.06 | 6.50 | 7.44 | – | – | – | – | – |
| Oc1cccc(OCCNCc2ccccc2)c1 | 28 | – | – | – | – | – | – | – | – | – | – |
| S=c1[nH]c2cccc(OCCNCc3ccccc3)c2[nH]1 | – | 8.52 | 9.74 | 8.70 | 8.42 | 8.59 | – | – | – | – | – |
| Sc1nc2c(OCCNCc3ccccc3)cccc2[nH]1 | 14 | – | – | – | – | – | – | – | – | – | – |
| Cc1nc2c(OCCNCc3ccccc3)cccc2[nH]1 | 6 | 7.82 | 8.36 | 7.02 | 7.21 | 7.58 | – | – | – | – | – |
| O=C1Cc2c(cccc2OCCNCc2ccccc2)N1 | 54 | 8.37 | – | 8.55 | 8.00 | – | – | – | – | – | – |
| FC(F)(F)c1nc2c(OCCNCc3ccccc3)cccc2[nH]1 | 10 | 8.76 | 9.74 | 8.94 | 8.51 | 8.72 | – | – | 0.007 | 0.09 | 0.33 |

Second part, led by results:

| Ratio [1] | pKi (D(2) dopamine receptor [2]) | pKi (D(2) dopamine receptor [3]) | pKi (D(3) dopamine receptor) | pKi (D(4) dopamine receptor) | pKi (D(2) dopamine receptor [4]) | Compound | ED50 (Mus musculus [5]) | ED50 (Mus musculus [6]) | ED50 (Mus musculus [7]) [mg/kg] | ED50 (Mus musculus [8]) [mg/kg] | ED50 (Mus musculus [9]) [mg/kg] |
| --- | --- | --- | --- | --- | --- | --- | --- | --- | --- | --- | --- |
| 21 | 8.19 | 9.68 | 7.91 | 7.95 | 8.35 | Sc1nc2c(OCCNCc3ccccc3)cc(Cl)cc2[nH]1 | – | – | – | – | – |
| 16 | 7.49 | 9.15 | 7.38 | 8.15 | 7.94 | FC(F)(F)c1nc2c(OCCNCc3ccccc3)cc(Cl)cc2[nH]1 | inactive | inactive | 0.35 | – | – |
| – | – | 9.74 | – | 8.20 | 8.33 | O=c1[nH]c2cccc(OCCNCc3ccccc3)c2[nH]1 | – | – | – | – | – |
| – | 8.59 | 9.60 | 8.13 | 7.80 | 8.57 | O=c1[nH]c2cc(Cl)cc(OCCNCc3ccccc3)c2[nH]1 | – | – | – | – | – |
| 11 | – | – | – | – | – | Oc1nc2c(OCCNCc3ccccc3)cc(Cl)cc2[nH]1 | – | – | – | – | – |
